The record followed here is ChEMBL document CHEMBL2401712, “Fused thiazolyl alkynes as potent mGlu5 receptor positive allosteric modulators” (Bioorg Med Chem Lett, 2013).

As a reminder, the Emax is the maximal effect, on the per cent scale that the assay sets. In general, EC50 refers to the concentration at which the effect is half-maximal. What is called inhibition is the relative decrease from the control value, in per cent. The IC50 is the concentration at which inhibition is half-maximal.

Each structure is given as a SMILES string. Some results are limits rather than exact numbers.

Data set [1] relates to Liver microsomes. Description: Metabolic stability in human liver microsomes assessed as GSH adduct formation after 60 mins by LC-MS/MS analysis. The settings on record: 1 h. It counts as ADME, Microsome. On the technique in general: Liver microsomes are a subcellular fraction often used to study metabolism.
A short description of data set [2]: Plasma protein binding in human. The settings on record: read-out: PPB (converted). It counts as ADME, cell-free.
Data set [3] concerns the target T1, Metabotropic glutamate receptor 5 (Homo sapiens, UniProt P41594). Description: Positive allosteric modulation of human mGlu5 receptor expressed in HEK293 cells assessed as potentiation of L-glutamate-induced activity after 1 hr by FLIPR assay relative to control. It counts as cell-based.
Target sequence in this assay (P41594 21-1212 limits assumed): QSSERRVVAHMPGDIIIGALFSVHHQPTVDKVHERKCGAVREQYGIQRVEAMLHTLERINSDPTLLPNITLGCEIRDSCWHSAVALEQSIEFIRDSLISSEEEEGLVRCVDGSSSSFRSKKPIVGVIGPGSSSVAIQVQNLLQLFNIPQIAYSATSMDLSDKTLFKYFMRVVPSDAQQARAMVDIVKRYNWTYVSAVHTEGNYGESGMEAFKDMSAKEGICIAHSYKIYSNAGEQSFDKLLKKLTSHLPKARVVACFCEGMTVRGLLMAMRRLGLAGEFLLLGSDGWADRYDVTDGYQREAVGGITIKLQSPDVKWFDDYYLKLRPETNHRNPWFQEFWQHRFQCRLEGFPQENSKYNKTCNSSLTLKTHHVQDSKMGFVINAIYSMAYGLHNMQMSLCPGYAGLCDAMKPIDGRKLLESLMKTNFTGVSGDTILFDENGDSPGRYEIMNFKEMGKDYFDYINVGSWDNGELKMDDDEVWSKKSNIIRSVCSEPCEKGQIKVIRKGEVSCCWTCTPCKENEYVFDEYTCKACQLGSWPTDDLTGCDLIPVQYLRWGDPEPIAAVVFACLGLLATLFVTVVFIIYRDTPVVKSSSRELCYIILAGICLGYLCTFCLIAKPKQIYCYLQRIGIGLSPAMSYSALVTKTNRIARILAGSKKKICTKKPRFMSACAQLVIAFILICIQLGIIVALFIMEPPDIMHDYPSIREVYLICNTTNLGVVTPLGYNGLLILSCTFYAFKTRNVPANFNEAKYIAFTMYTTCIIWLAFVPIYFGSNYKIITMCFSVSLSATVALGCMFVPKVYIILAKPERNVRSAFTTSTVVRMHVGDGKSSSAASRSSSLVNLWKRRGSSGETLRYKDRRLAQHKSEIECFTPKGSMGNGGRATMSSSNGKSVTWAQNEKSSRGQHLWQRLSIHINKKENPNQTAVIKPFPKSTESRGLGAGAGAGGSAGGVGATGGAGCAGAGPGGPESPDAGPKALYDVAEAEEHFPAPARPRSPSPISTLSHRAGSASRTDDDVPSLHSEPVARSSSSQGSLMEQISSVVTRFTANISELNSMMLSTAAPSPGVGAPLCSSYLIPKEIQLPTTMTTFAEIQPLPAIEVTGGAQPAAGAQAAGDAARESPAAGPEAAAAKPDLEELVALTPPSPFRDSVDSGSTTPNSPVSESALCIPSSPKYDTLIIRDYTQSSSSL
Data set [4] concerns the target T1, Metabotropic glutamate receptor 5. Description: Positive allosteric modulation of human mGlu5 receptor expressed in HEK293 cells assessed as potentiation of L-glutamate-induced activity after 1 hr by FLIPR assay. It counts as cell-based.
Target sequence in this assay (P41594 whole entry): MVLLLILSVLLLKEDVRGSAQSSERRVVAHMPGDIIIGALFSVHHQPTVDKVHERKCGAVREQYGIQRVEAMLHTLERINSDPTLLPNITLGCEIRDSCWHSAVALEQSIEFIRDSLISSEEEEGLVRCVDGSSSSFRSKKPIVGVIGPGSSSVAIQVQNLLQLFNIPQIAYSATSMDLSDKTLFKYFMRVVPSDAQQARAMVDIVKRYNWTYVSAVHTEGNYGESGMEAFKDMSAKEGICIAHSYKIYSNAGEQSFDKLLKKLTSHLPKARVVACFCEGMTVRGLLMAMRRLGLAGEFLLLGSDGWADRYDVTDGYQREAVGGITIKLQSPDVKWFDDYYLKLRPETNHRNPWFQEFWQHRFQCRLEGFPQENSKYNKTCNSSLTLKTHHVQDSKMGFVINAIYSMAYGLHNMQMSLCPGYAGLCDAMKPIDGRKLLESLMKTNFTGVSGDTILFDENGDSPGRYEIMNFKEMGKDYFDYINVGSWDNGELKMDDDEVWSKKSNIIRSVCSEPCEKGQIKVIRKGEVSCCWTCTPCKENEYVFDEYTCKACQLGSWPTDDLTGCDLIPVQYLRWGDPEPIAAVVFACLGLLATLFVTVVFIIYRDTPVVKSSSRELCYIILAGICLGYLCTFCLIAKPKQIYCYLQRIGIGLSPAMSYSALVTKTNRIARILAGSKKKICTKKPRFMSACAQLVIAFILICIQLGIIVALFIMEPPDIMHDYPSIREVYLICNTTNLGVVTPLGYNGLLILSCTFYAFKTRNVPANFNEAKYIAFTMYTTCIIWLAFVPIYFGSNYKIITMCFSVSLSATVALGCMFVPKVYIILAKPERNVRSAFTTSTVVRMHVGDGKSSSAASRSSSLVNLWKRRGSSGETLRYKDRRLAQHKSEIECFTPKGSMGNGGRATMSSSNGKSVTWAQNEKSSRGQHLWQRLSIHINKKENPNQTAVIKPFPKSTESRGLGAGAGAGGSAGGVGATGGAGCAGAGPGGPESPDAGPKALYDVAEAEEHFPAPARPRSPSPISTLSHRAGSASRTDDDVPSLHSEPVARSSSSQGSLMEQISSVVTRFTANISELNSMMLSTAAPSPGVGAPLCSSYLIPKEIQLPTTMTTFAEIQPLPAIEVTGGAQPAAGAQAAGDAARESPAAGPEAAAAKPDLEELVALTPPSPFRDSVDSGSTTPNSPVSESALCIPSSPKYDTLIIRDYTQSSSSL
Another data set addresses CYP2D6 (Homo sapiens, UniProt P10635). Description: Inhibition of CYP2D6 (unknown origin) at 5 uM relative to control. The class given is ADME.
Data set [5] has as its target T1, Metabotropic glutamate receptor 5. Description: Negative allosteric modulation of human mGlu5 receptor expressed in HEK293 cells assessed as inhibition of L-glutamate-induced activity after 1 hr by FLIPR assay. It counts as cell-based.
Target sequence in this assay (P41594 whole entry): as above
In data set [6] the test system is Liver microsomes. Description: Intrinsic clearance in human liver microsomes. The class given is ADME, Microsome. Further details: unit not given here.
The subject of data set [7] is Liver microsomes. Description: Intrinsic clearance in rat liver microsomes. The class given is ADME, Microsome.
Data set [8] is described as follows: Plasma protein binding in rat. It counts as ADME, cell-free. The following applies: read-out: PPB (converted).
In the next data set the target is CYP3A4 (Homo sapiens, UniProt P08684). Description: Inhibition of CYP3A4 (unknown origin) at 5 uM relative to control. It counts as ADME.
Chain of CYP3A4 (P08684 whole entry): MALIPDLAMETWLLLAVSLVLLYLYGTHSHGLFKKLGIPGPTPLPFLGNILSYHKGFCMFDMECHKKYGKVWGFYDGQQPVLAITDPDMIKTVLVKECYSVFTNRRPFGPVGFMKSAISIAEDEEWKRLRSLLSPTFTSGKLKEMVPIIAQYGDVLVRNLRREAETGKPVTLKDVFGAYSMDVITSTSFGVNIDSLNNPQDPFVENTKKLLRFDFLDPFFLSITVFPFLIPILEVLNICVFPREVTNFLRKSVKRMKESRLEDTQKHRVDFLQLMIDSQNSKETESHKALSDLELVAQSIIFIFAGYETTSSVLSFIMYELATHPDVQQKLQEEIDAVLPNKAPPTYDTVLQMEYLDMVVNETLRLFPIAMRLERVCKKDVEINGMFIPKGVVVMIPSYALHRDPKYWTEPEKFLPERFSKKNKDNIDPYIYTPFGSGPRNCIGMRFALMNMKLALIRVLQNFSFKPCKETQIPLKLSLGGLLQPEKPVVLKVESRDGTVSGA
In data set [9] the target is T1, Metabotropic glutamate receptor 5. Description: Negative allosteric modulation of human mGlu5 receptor expressed in HEK293 cells assessed as inhibition of L-glutamate-induced activity after 1 hr by FLIPR assay relative to control. It counts as cell-based. Further details: concentration or dose not given beside the values. The following applies: concentration not given here.
Target sequence in this assay (P41594 21-1212 limits assumed): as the sequence (P41594 21-1212 limits assumed) above

Data set [10] shares this target. Description: Positive allosteric modulation of mGlu5 receptor (unknown origin) relative to control.
Target sequence in this assay (P41594 21-1212 limits assumed): as above
Data set [11] has the same target. Description: Positive allosteric modulation of mGlu5 receptor (unknown origin).
Target sequence in this assay (P41594 whole entry): as the sequence (P41594 whole entry) above

Chain of CYP2D6 (P10635 whole entry): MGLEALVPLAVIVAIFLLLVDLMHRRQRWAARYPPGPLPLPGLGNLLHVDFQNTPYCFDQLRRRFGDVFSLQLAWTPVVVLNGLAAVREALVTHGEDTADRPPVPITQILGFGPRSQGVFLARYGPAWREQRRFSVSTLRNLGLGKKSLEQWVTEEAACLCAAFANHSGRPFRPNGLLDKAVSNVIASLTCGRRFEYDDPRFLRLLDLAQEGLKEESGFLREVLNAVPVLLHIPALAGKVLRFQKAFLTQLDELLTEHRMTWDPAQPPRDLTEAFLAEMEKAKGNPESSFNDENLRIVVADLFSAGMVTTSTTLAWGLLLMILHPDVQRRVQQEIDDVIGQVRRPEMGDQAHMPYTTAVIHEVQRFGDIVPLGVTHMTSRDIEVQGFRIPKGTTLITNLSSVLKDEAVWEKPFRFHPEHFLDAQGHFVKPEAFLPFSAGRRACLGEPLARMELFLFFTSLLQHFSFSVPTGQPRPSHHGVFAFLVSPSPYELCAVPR

Turning to `CN1CCc2nc(C#Cc3ccccc3)sc2C1=O`, in the data set on Liver microsomes [1], the Stability result is listed as “Unstable”. Moreover, the fraction unbound in [2] is 0.033; in data set [8], 0.049. Besides, the Emax in [3] turned out to be 180%. Also, the EC50 in data set [4] was determined as 0.0024 µM. Further, the inhibition at 5 µM at CYP2D6 and on CYP3A4 was below 40% throughout. For the same molecule, the IC50 in [5] was above 10 µM. Besides, the CLH in the data set on Liver microsomes [6] turned out to be 3.1; in the data set with Liver microsomes [7], 52 mL/min.

As to `CN1CCc2nc(C#Cc3ccccc3)sc2C1`, the Stability result with Liver microsomes [1] is “Stable”. The fraction unbound in data set [2] is 0.035; in data set [8] it was 0.061. For the same molecule, the Emax in data set [3] is 110%. The EC50 in data set [4] came to 0.034 µM. In addition, the inhibition at 5 µM on CYP2D6 and against CYP3A4 was below 40% in each case. Further, in data set [5], the IC50 is above 10 µM. Moreover, the CLH was determined as 4.9 in the data set with Liver microsomes [6] and 88 mL/min in the data set on Liver microsomes [7].

Regarding `C(#Cc1nc2c(s1)CN(C1CCCCC1)CC2)c1ccccc1`, in [9], the inhibition stood at 1%. In addition, in [3], the Emax worked out at 19%. Also, in data set [4], the EC50 is above 10 µM. The IC50 in data set [5] is above 10 µM.

On to `CC1CCCC(C(=O)N2CCc3nc(C#Cc4ccccc4)sc3C2)C1` (centres undefined), for which the inhibition in data set [9] was 20%. Besides, in data set [3], the Emax stood at 260%. Also, the EC50 in data set [4] amounted to 0.1 µM. Further, the IC50 in data set [5] was above 10 µM.

On to `CCC(=O)N1CCc2nc(C#Cc3ccccc3)sc2C1`, for which the inhibition in data set [9] turned out to be 79%. Further, the Emax in [3] is -17%. The 50% effective concentration (EC50) in data set [4] was above 10 µM. In data set [5], the IC50 was 0.038 µM.

For `O=C(N1CCCC1)N1CCc2nc(C#Cc3ccccc3)sc2C1`, the fraction unbound in [2] is 0.024; in data set [8], 0.047. Further, the Emax in data set [3] turned out to be 180%. Besides, in data set [4], the EC50 was 0.0098 µM. For the same molecule, the inhibition at 5 µM on CYP2D6 and at CYP3A4 was below 40% throughout. In addition, in data set [5], the IC50 is above 10 µM. Besides, the CLH in the data set on Liver microsomes [6] stood at 1; with Liver microsomes [7], 49 mL/min.

Take `O=C(C1CC(F)(F)C1)N1CCc2nc(C#Cc3cccc(F)c3)sc2C1`: the inhibition in data set [9] came out at 45%. Also, the Emax in [3] came out at 72%. Besides, the EC50 in data set [4] was 0.0025 µM. For the same molecule, the IC50 in data set [5] is above 10 µM.

Regarding `CC(C)CN1CCc2nc(C#Cc3ccccc3)sc2C1`, in data set [9], the inhibition turned out to be 94%. The Emax in [3] is -48%. Further, the EC50 in [4] was above 10 µM. Further, the IC50 in [5] was found to be 0.65 µM.

On to `O=C(N1CCC(F)(F)CC1)N1CCc2nc(C#Cc3ccccc3)sc2C1`, for which the inhibition in [9] is 3%. The Emax in data set [3] came to 100%. In data set [4], the EC50 amounted to 0.072 µM. Besides, the IC50 in data set [5] is above 10 µM.

Consider `O=C(C1CC(F)(F)C1)N1CCc2nc(C#Cc3ccc(F)cc3)sc2C1`, for which, in [9], the inhibition is 13%. In addition, in [3], the Emax is 73%. Further, the half-maximal effective concentration (EC50) in data set [4] was 0.15 µM. Moreover, in data set [5], the IC50 was above 10 µM.

In the case of `CCCCN1CCc2nc(C#Cc3ccccc3)sc2C1`, the inhibition in [9] amounted to 28%. Also, the Emax in data set [3] came to 32%. Further, in data set [4], the EC50 was 0.11 µM. Moreover, the IC50 in [5] is above 10 µM.

Take `O=C(C1CCC1)N1CCc2nc(C#Cc3ccccc3)sc2C1`: in [9], the inhibition was determined as 81%. Further, the Emax in data set [3] was 3%. For the same molecule, in [4], the EC50 is above 10 µM. In addition, in data set [5], the IC50 turned out to be 0.37 µM.

Regarding `CC1CCC(C(=O)N2CCc3nc(C#Cc4ccccc4)sc3C2)CC1` (centres undefined), the inhibition in data set [9] was found to be 0%. Also, the Emax in data set [3] was found to be 80%. For the same molecule, the EC50 in [4] stood at 0.19 µM. Also, the IC50 in data set [5] is above 10 µM.

As to `O=C(N1CCC(F)CC1)N1CCc2nc(C#Cc3ccccc3)sc2C1`, the inhibition in data set [9] amounted to 15%. For the same molecule, the Emax in data set [3] was determined as 100%. Further, in [4], the EC50 came to 0.074 µM. Also, in [5], the IC50 is above 10 µM.

In the case of `O=C(N1CCc2nc(C#Cc3ccccc3)sc2C1)N1CC(F)(F)C1`, the inhibition in data set [9] is -9%. For the same molecule, the Emax in [3] was 94%. Further, in data set [4], the EC50 came to 0.026 µM. Moreover, in data set [5], the half-inhibitory concentration (IC50) is above 10 µM.

On to `Fc1cccc(C#Cc2nc3c(s2)CN(C2CCCC2)CC3)c1`, for which the inhibition in [9] was 94%. In addition, the Emax in data set [3] is -44%. Also, in data set [4], the EC50 is above 10 µM. In addition, the IC50 in [5] was found to be 0.64 µM.

Take `O=S(=O)(C1CC1)N1CCc2nc(C#Cc3ccccc3)sc2C1`: the inhibition in data set [9] is 87%. In addition, the Emax in [3] is -12%. Besides, the EC50 in data set [4] was above 10 µM. In addition, the IC50 in [5] stood at 0.034 µM.

In the case of `O=C(C1CC(F)C1)N1CCc2nc(C#Cc3ccccc3)sc2C1` (centres undefined), the inhibition in data set [9] was determined as 38%. Besides, the Emax in [3] is 61%. Further, in [4], the EC50 stood at 0.085 µM. The IC50 in data set [5] is above 10 µM.

On to `CC(=O)N1CCc2nc(C#Cc3ccccc3)sc2C1`, for which the inhibition in [9] was found to be 79%. In addition, in [3], the Emax is -18%. In addition, in [4], the EC50 is above 10 µM. The IC50 in data set [5] stood at 0.09 µM.

Regarding `O=C(c1cnc(C#Cc2ccccc2)s1)N1CCCCC1`, the Stability entry in the data set on Liver microsomes [1] is given as “Unstable”. The Emax in data set [10] was 167%. This molecule also registered an EC50 in [11] of 0.0061 µM.

For `COC1CC(C(=O)N2CCc3nc(C#Cc4ccccc4)sc3C2)C1` (centres undefined), the inhibition in data set [9] is -0.2%. In addition, the Emax in [3] is 43%. For the same molecule, the EC50 in [4] turned out to be 0.64 µM. Also, in [5], the IC50 was above 10 µM.

In the case of `O=C(C1CC(F)(F)C1)N1CCc2nc(C#Cc3ccccc3)sc2C1`, the inhibition in [9] is 52%. In addition, the Stability result in the data set with Liver microsomes [1] is on record as “Stable”. Besides, the fraction unbound is 0.011 in data set [2] and 0.012 in [8]. For the same molecule, the Emax in [3] is 89%. The EC50 in data set [4] was determined as 0.018 µM. Also, the inhibition at 5 µM on CYP2D6 and on CYP3A4 was below 40% in each case. Further, the IC50 in data set [5] is above 10 µM. In addition, the figures for the CLH with Liver microsomes [6] and in the data set with Liver microsomes [7] were 1.1 and 7.6 mL/min, respectively.

Regarding `O=C(N1CCc2nc(C#Cc3ccccc3)sc2C1)N1CCC(F)(F)C1`, the inhibition in [9] came out at 26%. Besides, the Emax in data set [3] stood at 170%. For the same molecule, the EC50 in data set [4] was 0.053 µM. The IC50 in data set [5] is above 10 µM.

With `O=C(CC1CCOCC1)N1CCc2nc(C#Cc3ccccc3)sc2C1`, in [9], the inhibition was -2%. Further, the Emax in data set [3] was 45%. In addition, in [4], the concentration for a half-maximal effect (EC50) was 0.47 µM. The IC50 in [5] was above 10 µM.
